Where a name gives a salt, the structure may show the parent alone.

Holding throughout (assay type): cell-based
For assay [1], the system named is Escherichia coli (ATCC #8739). The assay can be described thus: Minimum Inhibitory Concentration (MIC) synergy study, bacteria. The settings on record: for Minimum Inhibitory Concentration (ppm) MBIT: E. coli, MBIT alone (1:0) or MBIT portion of the mixture. As to the method:
(§1) The synergism of the biocides combination of the present invention was determined using the method described by Kull, F. C, et. all in Applied Microbiology 9:538-541 (1961). […] In this invention, two different approaches of synergistic study were conducted. One synergistic study is determined based on the minimum inhibitory concentration (MIC), the lowest concentration of a biocide prevents the growth of tested microorganism under a specific set of conditions. The second study was based on three to four consecutive challenge testing. This test was conducted to take biocide mode of action and speed of kill into a consideration.
(§2) The microorganisms tested are Escherichia coli (E. coli, ATCC #8739), yeast, Candida albicans (c. albicans, ATCC #10231) and mold, Aspergillus niger (a. niger, ATCC #16404). The final concentration of microorganisms in the tested media is about 10^4 cfu/mL
(§3) MBIT synergy with a secondary biocide was determined by evaluating the minimum biocide or biocide blend concentration required to inhibit microbial growth. All studies were conducted using a 96 well microtiter plate format. For all studies, 200 μl of microbial growth media, containing various concentrations of MBIT alone, the secondary biocide alone, or combinations of both biocide chemistries, was added to individual wells of a microtiter plate. Specifically, Tryptic Soy Broth (TSB) was utilized for bacteria (E. coli, ATCC #8739), Yeast Malt Extract Broth (YMB) for yeast (Candida albicans, ATCC #10231) and Potato Dextrose Broth (PDB) for mold (Aspergillus niger, ATCC #16404). Test organisms, at a final concentration of 10^4 CFU/mL or 10^4 spores/mL, were applied to each well in parallel experiments to initiate the MIC evaluations. Growth medium containing no biocide was utilized as a control in each experimental setup to confirm the growth viability of each organism. Eight concentrations (2-fold dilutions) of each individual biocide were evaluated in the microbial growth inhibition studies in addition to the 64 possible combinations of these biocide concentrations. Evaluation of the individual biocide concentrations is required to achieve an inhibitory concentration end point for synergy index calculation. […] Individual wells were scored as growth or no growth based on visual organism growth turbidity.

Assay [2] relates to Candida albicans (ATCC #10231). The assay can be described thus: Minimum Inhibitory Concentration (MIC) synergy study, yeast. The settings on record: for MIC: Candida albicans; for Minimum Inhibitory Concentration (ppm) MBIT: C. albicans, MBIT alone (1:0) or MBIT portion of the mixture. As to the method: as §1, §2, §3
The subject of assay [3] is Aspergillus niger (ATCC #16404). The assay can be described thus: Minimum Inhibitory Concentration (MIC) synergy study, mold. As to conditions: for Minimum Inhibitory Concentration (ppm) MBIT: A. niger, MBIT alone (1:0) or MBIT portion of the mixture. Here is the method:
as §1, §2, §3

Assay [4] concerns Candida albicans (ATCC #10231). The assay can be described thus: Minimum Kill Concentration (MKC) repeated challenge test, yeast. Here is the method:
as §1
(§4) MKC evaluations were utilized to determine the synergy of MBIT with the co-biocides DXN (6-Acetoxy-2,4-dimethyl-m-dioxane) and THNM (2-Hydroxymethyl-2-nitro-1,3-propanediol) due to the inability to evaluate these particular biocide chemistries in MIC evaluations. The following test methods were designed for the evaluation of the aforementioned synergistic combinations. The results can be found in Tables 7 and 8.
Testing began (day 0) by applying sterile water, supplemented with 2.0% yeast malt extract broth, to each well of a 96-well microtiter plate. […] After 48 hours of incubation at 30° C., yeast kill (to a maximum detection limit of 5×10^1 CFU/mL) was visually determined by the presence or lack of turbidity within the YMB.

For assay [5], the system named is Escherichia coli (ATCC #8739). The assay can be described thus: Minimum Kill Concentration (MKC) repeated challenge test, bacteria. As to conditions: for MIC: Escherichia coli; for Minimum Inhibitory Concentration (ppm) MBIT: MBIT alone (1:0) or MBIT portion of the mixture. As to the method:
as §1, §4
Testing began (day 0) by applying sterile water, supplemented with 2.0% TSB, to each well of a 96-well microtiter plate. Various concentrations of MBIT alone, the co-biocide alone, or combinations of both biocide chemistries, were added to individual wells of the microtiter plate followed by addition of Escherichia coli (ATCC #8739) at a final concentration of 5×10^4 CFU/mL. Equivalent inoculations were applied on days 7, 14 and 21 of the study. To determine the extent of bacterial kill, an aliquot (20 μl) of each sample was taken on days 1, 7, 8, 14, 15, 21, 22 and transferred to tryptic soy broth (180 μl). After 48 hours of incubation at 30° C., bacterial kill (to a maximum detection limit of 5×10^1 CFU/mL) was visually determined by the presence or lack of turbidity within the TSB.

For assay [6], the system named is Aspergillus niger (ATCC #16404). The assay can be described thus: Minimum Kill Concentration (MKC) repeated challenge test, mold. As to the method: as §1, §4
Testing began (day 0) by applying sterile water, supplemented with 2.0% potato dextrose broth, to each well of a 96-well microtiter plate. […] After 48-96 hours of incubation at 30° C., mold kill (to a maximum detection limit of 5×10^1 spores/mL) was visually determined by the presence or lack of turbidity within the PDB.

Take `CCCCCCCCCCCCNC(=N)N` [DDG, Dodecylguanidine hydrochloride]: the MIC in assay [1] (Escherichia coli, ATCC8739, read-out: Minimum Inhibitory Concentration (ppm) DDG) stood at 875 µg/mL; in assay [2] (ATCC10231, read-out: Minimum Inhibitory Concentration (ppm) DDG) it was 2000 µg/mL; in assay [3] (Aspergillus niger, ATCC16404, read-out: Minimum Inhibitory Concentration (ppm) DDG) it was 750 µg/mL.

Consider `CC(=O)OC1CC(C)OC(C)O1` (stereo not drawn) [DXN, 6-Acetoxy-2,4-dimethyl-m-dioxane], for which the MIC in assay [4] (Candida albicans, ATCC10231, 504 h, Table 7, kill of C. albicans at day 21, DXN alone (0:1) or DXN portion of the mixture, read-out: Minimum Inhibitory Concentration (ppm) DXN) amounted to 2000 µg/mL; in assay [5] (ATCC8739, 168 h, Table 7, kill of E. coli at day 7, DXN alone (0:1) or DXN portion of the mixture, read-out: Minimum Inhibitory Concentration (ppm) DXN), 875 µg/mL; in assay [6] (Aspergillus niger, ATCC16404, 504 h, Table 7, kill of A. niger at Day 21, DXN alone (0:1) or DXN portion of the mixture, read-out: Minimum Inhibitory Concentration (ppm) DXN), 750 µg/mL.

Consider `Cn1sc2ccccc2c1=O` [MBIT, N-methyl-1,2-benzisothiazolin-3-one], for which the “Minimum Inhibitory Concentration (ppm) MBIT” value is on record as 62.5 ppm in assay [1] (Table 1, MBIT/DDG study); 12.5 ppm in assay [1] (Table 2, MBIT/PHMB study); 25 ppm in assay [1] (Table 3, MBIT/NaPT study); 6.25 ppm in assay [4] (Table 7, MBIT/DXN study, kill of C. albicans at day 21, MBIT alone (1:0) or MBIT portion of the mixture); 62.5 ppm in assay [5] (Table 7, MBIT/DXN study, kill of E. coli at day 7); 125 ppm in assay [5] (Table 8, MBIT/THNM study, kill of E. coli at day 21). For the same molecule, the “Minimum Inhibitory Concentration (ppm) MBIT” value in assay [2] (Table 1, MBIT/DDG study) was determined as 6.25 ppm; in assay [2] (Table 2, MBIT/PHMB study), 0.3125 ppm; in assay [2] (Table 5, MBIT/Terbutryn study) it was 3 ppm; in assay [6] (Table 7, MBIT/DXN study, kill of A. niger at Day 21, MBIT alone (1:0) or MBIT portion of the mixture) it was 10 ppm; in assay [3] (Table 1, MBIT/DDG study) it was 10 ppm; in assay [3] (Table 3, MBIT/NaPT study), 6.3 ppm. Besides, the “Minimum Inhibitory Concentration (ppm) MBIT” value in assay [3] (Table 4, MBIT/NaOPP study) is given as 6.3 ppm.

Turning to `[Na+].[O-]c1ccccc1-c1ccccc1` [NaOPP, sodium ortho-phenylphenate], the “Minimum Inhibitory Concentration (ppm) NaOPP” value in assay [3] (Table 4, A. niger, NaOPP alone (0:1) or NaOPP portion of the mixture) was determined as 200 ppm.

Consider `[Na+].[O-][n+]1ccccc1[S-]` [NaPT, Sodium pyrithione], for which the “Minimum Inhibitory Concentration (ppm) NaPT” value is 2.5 ppm in assay [1] (Table 3, E. coli, NaPT alone (0:1) or NaPT portion of the mixture) and 25 ppm in assay [3] (Table 3, A. niger, NaPT alone (0:1) or NaPT portion of the mixture).

In the case of `O=[N+]([O-])C(CO)(CO)CO` [THNM, 2-Hydroxymethyl-2-nitro-1,3-propanediol], the MIC in assay [5] (ATCC8739, 504 h, Table 8, kill of E. coli at day 21, THNM alone (0:1) or value printed for the mixture, read-out: Minimum Inhibitory Concentration (ppm) THMN) amounted to 125 µg/mL.

As to `CCNc1nc(NC(C)(C)C)nc(SC)n1` [Terbutryn], the MIC in assay [2] (ATCC10231, Table 5, C. albicans, Terbutryn alone (0:1) or Terbutryn portion of the mixture, read-out: Minimum Inhibitory Concentration (ppm) Terbutryn) is greater than 20000 µg/mL.

For the origin of these results see patent US9510597B2, “Microbicidal composition” (Dow Global Technologies LLC, priority 2012, dated 2016).
